According to patent publication EP4559911A1, “NOVEL HETEROCYCLIC COMPOUND AND PHARMACEUTICAL COMPOSITION FOR INHIBITING AUTOTAXIN COMPRISING THE SAME” (Nextgen Bioscience Co., Ltd., priority 2022, dated 2024):

Target: human Autotaxin protein (Homo sapiens, UniProt Q13822)
Assay: Evaluation of the inhibitory activity against human Autotaxin protein (18:1 LysoPC substrate, choline assay kit, absorbance at 570 nm)
Type: biochemical
Conditions: compound at 500nM; 2 hours at 37 °C; % inhibition = (1 - absorbance test group / absorbance control group) X 100
In short: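 Human autotaxin (20 μL of 240 nM stock) was reacted with sonicated 18:1 LysoPC (10 μL of 360 μM stock) in Tris pH 8.0 buffer with BSA for 2 h at 37 °C, using 6 compound concentrations from 5-fold dilution. Released choline was detected via choline oxidase/dye probe (30 min), read as absorbance at 570 nm. % inhibition was calculated relative to control.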

inhibition at 0.5 µM | SMILES
43.7% | c1cnc2c(c1)CC(Nc1ncc(-c3nnc(N4CC(c5c[nH]nn5)C4)o3)cn1)C2 (centres unmarked) [Example 77, N-(5-(5-(3-(1H-1,2,3-triazol-4-yl)azetidin-1-yl)-1,3,4-oxadiazol-2-yl)pyrimidin-2-yl)-6,7-dihydro-5H-cyclopenta[b]pyridin-6-amine]
99.1% | CC1(c2c[nH]nn2)CN(C(=O)/C=C/c2cnc(NC3Cc4cc(F)c(F)cc4C3)nc2)C1 [Example 78, (E)-3-(2-((5,6-difluoro-2,3-dihydro-1H-inden-2-yl)amino)pyrimidin-5-yl)-1-(3-methyl-3-(1H-1,2,3-triazol-4-yl)azetidin-1-yl)prop-2-en-1-one]
24.7% | Fc1cc2c(cc1F)CC(Nc1ncc(-c3nnc(N4CC(n5cncn5)C4)o3)cn1)C2 [Example 79, 5-(5-(3-(1H-1,2,4-triazol-1-yl)azetidin-1-yl)-1,3,4-oxadiazol-2-yl)-N-(5,6-difluoro-2,3-dihydro-1H-inden-2-yl)pyrimidin-2-amine]
10.4% | Cc1ncn(C2CN(c3nnc(-c4cnc(NC5Cc6cc(F)c(F)cc6C5)nc4)o3)C2)n1 [Example 80, N-(5,6-difluoro-2,3-dihydro-1H-inden-2-yl)-5-(5-(3-(3-methyl-1H-1,2,4-triazol-1-yl)azetidin-1-yl)-1,3,4-oxadiazol-2-yl)pyrimidin-2-amine]
7% | Fc1cc2c(cc1F)CC(Nc1ncc(-c3nnc(N4CC(N5CCOCC5)C4)o3)cn1)C2 [Example 81, N-(5,6-difluoro-2,3-dihydro-1H-inden-2-yl)-5-(5-(3-morpholinoazetidin-1-yl)-1,3,4-oxadiazol-2-yl)pyrimidin-2-amine]
98% | CC1(c2c[nH]nn2)CN(C(=O)/C=C/c2cnc(NC3Cc4ccccc4C3)nc2)C1 [Example 82, (E)-3-(2-((2,3-dihydro-1H-inden-2-yl)amino)pyrimidin-5-yl)-1-(3-methyl-3-(1H-1,2,3-triazol-4-yl)azetidin-1-yl)prop-2-en-1-one]
81.6% | FC1(c2c[nH]nn2)CN(c2nnc(-c3cnc(NC4Cc5ccccc5C4)nc3)o2)C1 [Example 83, N-(2,3-dihydro-1H-inden-2-yl)-5-(5-(3-fluoro-3-(1H-1,2,3-triazol-4-yl)azetidin-1-yl)-1,3,4-oxadiazol-2-yl)pyrimidin-2-amine]
1.1% | CC(C)(C)C(=O)OCn1cc(C2CN(c3nnc(-c4cnc(NC5Cc6ccncc6C5)nc4)o3)C2)nn1 (centres unmarked) [Example 84, (4-(1-(5-(2-((6,7-dihydro-5H-cyclopenta[c]pyridin-6-yl)amino)pyrimidin-5-yl)-1,3,4-oxadiazol-2-yl)azetidin-3-yl)-1H-1,2,3-triazol-1-yl)methyl pivalate]
19.8% | c1cc2c(cn1)CC(Nc1ncc(-c3nnc(N4CC(c5c[nH]nn5)C4)o3)cn1)C2 (centres unmarked) [Example 85, N-(5-(5-(3-(1H-1,2,3-triazol-4-yl)azetidin-1-yl)-1,3,4-oxadiazol-2-yl)pyrimidin-2-yl)-6,7-dihydro-5H-cyclopenta[c]pyridin-6-amine]
2.8% | CC(C)(C)C(=O)OCn1cc(C2CN(c3nnc(-c4cnc(NCc5ccc6c(c5)OCO6)nc4)o3)C2)nn1 [Example 86, (4-(1-(5-(2-((benzo[d][1,3]dioxol-5-ylmethyl)amino)pyrimidin-5-yl)-1,3,4-oxadiazol-2-yl)azetidin-3-yl)-1H-1,2,3-triazol-1-yl)methyl pivalate]
18% | c1cc2c(cc1CNc1ncc(-c3nnc(N4CC(c5c[nH]nn5)C4)o3)cn1)OCO2 [Example 87, 5-(5-(3-(1H-1,2,3-triazol-4-yl)azetidin-1-yl)-1,3,4-oxadiazol-2-yl)-N-(benzo[d][1,3]dioxol-5-ylmethyl)pyrimidin-2-amine]
10.5% | CN(c1ncc(-c2nnc(N3CC(c4c[nH]nn4)C3)o2)cn1)C1Cc2cc(F)c(F)cc2C1 [Example 88, 5-(5-(3-(1H-1,2,3-triazol-4-yl)azetidin-1-yl)-1,3,4-oxadiazol-2-yl)-N-(5,6-difluoro-2,3-dihydro-1H-inden-2-yl)-N-methylpyrimidin-2-amine]
84.9% | FC1(c2c[nH]nn2)CN(c2nnc(-c3cnc(NC4Cc5ccc(Br)cc5C4)nc3)o2)C1 (centres unmarked) [Example 89, N-(5-bromo-2,3-dihydro-1H-inden-2-yl)-5-(5-(3-fluoro-3-(1H-1,2,3-triazol-4-yl)azetidin-1-yl)-1,3,4-oxadiazol-2-yl)pyrimidin-2-amine]
17.9% | O=C(CCCc1nnc(NC2Cc3cc(F)c(F)cc3C2)o1)N1CC(c2c[nH]nn2)C1 [Example 90, 1-(3-(1H-1,2,3-triazol-4-yl)azetidin-1-yl)-4-(5-((5,6-difluoro-2,3-dihydro-1H-inden-2-yl)amino)-1,3,4-oxadiazol-2-yl)butan-1-one]
97.1% | Clc1ccc2c(c1)CC(Nc1ncc(-c3nnc(N4CC(c5c[nH]nn5)C4)o3)cn1)C2 (centres unmarked) [Example 91, 5-(5-(3-(1H-1,2,3-triazol-4-yl)azetidin-1-yl)-1,3,4-oxadiazol-2-yl)-N-(5-chloro-2,3-dihydro-1H-inden-2-yl)pyrimidin-2-amine]
85.5% | Clc1ccc(CCNc2ncc(-c3nnc(N4CCC(c5c[nH]nn5)C4)o3)cn2)cc1 (centres unmarked) [Example 92, 5-(5-(3-(1H-1,2,3-triazol-4-yl)pyrrolidin-1-yl)-1,3,4-oxadiazol-2-yl)-N-(4-chlorophenethyl)pyrimidin-2-amine]
89.3% | Clc1ccc(CCNc2ncc(-c3nnc(N4CC(c5c[nH]nn5)C4)o3)cn2)cc1 [Example 93, 5-(5-(3-(1H-1,2,3-triazol-4-yl)azetidin-1-yl)-1,3,4-oxadiazol-2-yl)-N-(4-chlorophenethyl)pyrimidin-2-amine]
